Paper PMC6317078 (Science (New York, N.Y.), 2018)

Target: T1, zfDHHC15 (Danio rerio, UniProt F1QXD3, C153S)
T1 sequence (F1QXD3 1-332 C153S): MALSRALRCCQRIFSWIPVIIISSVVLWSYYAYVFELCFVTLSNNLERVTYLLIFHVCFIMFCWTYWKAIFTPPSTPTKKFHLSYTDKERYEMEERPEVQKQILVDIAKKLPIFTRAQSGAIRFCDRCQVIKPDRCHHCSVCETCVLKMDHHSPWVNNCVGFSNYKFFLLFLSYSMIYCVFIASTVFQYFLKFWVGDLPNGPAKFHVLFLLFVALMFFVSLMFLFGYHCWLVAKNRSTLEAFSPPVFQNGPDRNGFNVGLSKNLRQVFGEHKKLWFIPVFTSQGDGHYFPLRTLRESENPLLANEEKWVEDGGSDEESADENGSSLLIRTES
Assay: X-ray crystal structure
Conditions: 2.54 Å; acyl-binding cavity; ligand modelled into density, not added

CCCCCCCCCCCCCCCC(=O)O [palmitic acid]
X-ray crystal structure: continuous density in this cavity, which we modeled as a palmitic acid
